Test results taken from paper PMC10044445, “Tuning the Anthranilamide Peptidomimetic Design to Selectively Target Planktonic Bacteria and Biofilm” (Antibiotics, 2023).
≈ marks a conversion by molar mass, not a printed value. Where two headings read alike, the source gives them in different places.

Legend:
MRC-5 human fibroblasts = assay: Toxicity assay, Alamar Blue; type: cell-based; conditions: for IC50: MRC5, MRC-5 human fibroblasts, 72 h drug incubation, Alamar Blue
Protocol: Normal human lung fibroblasts MRC-5 were cultured in minimal essential medium (MEM, Invitrogen) supplemented with 10% foetal calf serum (FCS), 1% L-glutamine–penicillin–streptomycin, 2% sodium bicarbonate, 1% non-essential amino acids (NEAA), and 1% sodium pyruvate. The cell line was maintained at 37 °C in 5% CO2 as an adherent monolayer and was passaged upon reaching confluence by standard cell culture techniques. MRC-5 cells were seeded at 2 × 10^4 cells per well in 96-well plates to ensure full confluence (quiescence). Cells were treated for 24 h after seeding with 0.1 to 1000 μM of compounds. After 72 h of drug incubation, the treated media was replaced with fresh media containing 10% Alamar Blue and the cells were incubated for another 6 h. The metabolic activity was detected by spectrophotometric analysis by assessing the absorbance of Alamar blue as previously described by Pasquier et al. Cell proliferation was determined and expressed as a percentage of untreated control cells. The determination of IC50 values was performed using GraphPad Prism 6 (San Diego, CA, USA). Each experiment was performed in triplicate and was repeated in three independent experiments.

S. aureus = assay: Minimum inhibitory concentration, broth microdilution (CLSI); type: cell-based, Staphylococcus aureus
Protocol: (§1) The antimicrobial activity of the compounds was evaluated by a broth microdilution assay using the procedure described by CLSI. Briefly, bacteria were grown to mid-log phase in Muller Hinton broth (MHB) with shaking at 120 rpm and incubated at 37 °C for 12–16 h. Following incubation, bacteria were washed three times in PBS pH 7.4 at 3500 g for 10 min. After washing, bacteria were diluted with fresh MHB. The turbidity of the bacterial suspensions was adjusted so that OD660nm was 0.1, which gave 1 × 10^8 CFU/mL, and then further diluted to achieve 5 × 10^5 CFU/mL as a final bacterial concentration. Each compound was diluted (250–3.9 µM) through two-fold dilution. Wells in microtiter plates were loaded with 100 µL of inoculum containing 5 × 10^5 CFU/mL bacteria. Wells without any compound and containing only bacteria were used as negative controls (i.e., no inhibition of growth). Wells with media only were set as blank. The microtiter plate was wrapped with paraffin to prevent evaporation and incubated with shaking at 120 rpm and 37 °C for 18–24 h. After incubation, spectrophotometric readings were taken. The well without any bacterial growth and showing zero spectrophotometric reading was regarded as the MIC of the compounds.

E. coli = assay: as above; type: cell-based, Escherichia coli
Protocol: as §1

[1] = Staphylococcus aureus, broth microdilution in MHB, 18–24 h
[2] = Escherichia coli, broth microdilution in MHB, 18–24 h
[3] = Staphylococcus aureus, Table 2, lysine derivative versus parent, read-out: MIC S. aureus
[4] = Escherichia coli, Table 2, lysine derivative versus parent, read-out: MIC E. coli
[5] = broth microdilution in MHB, 18–24 h

Row | Compound | IC50 (MRC-5 human fibroblasts) [µM] | MIC90 (S. aureus; [1]) [µM] | MIC90 (E. coli; [2]) [µM] | further results
1 | NCCNC(=O)[C@H](Cc1c[nH]c2ccccc12)NC(=O)c1cc(-c2ccc(F)cc2)ccc1N [Compound 16c, (S)-4-amino-N-(1-((2-aminoethyl)amino)-3-(1H-indol-3-yl)-1-oxopropan-2-yl)-4′-fluoro-[1,1′-biphenyl]-3-carboxamide] | 34 | 31.2 (≈ 14.3 µg/mL) | > 125 | 
2 | NCCCNC(=O)[C@H](Cc1c[nH]c2ccccc12)NC(=O)c1cc(Br)ccc1NC(=O)Cc1cccc2ccccc12 [Compound 13b, (S)-N-(1-((3-aminopropyl)amino)-3-(1H-indol-3-yl)-1-oxopropan-2-yl)-5-bromo-2-(2-(naphthalen-1-yl)acetamido)benzamide] |  | 62.5 (≈ 39.2 µg/mL) | > 125 | 
3 | COc1ccc2ccccc2c1C(=O)Nc1ccc(Br)cc1C(=O)N[C@@H](Cc1c[nH]c2ccccc12)C(=O)NCCCN [Compound 13c, (S)-N-(2-((1-((3-aminopropyl)amino)-3-(1H-indol-3-yl)-1-oxopropan-2-yl)carbamoyl)-4-bromophenyl)-2-methoxy-1-naphthamide] | 20.5 | 15.6 (≈ 10 µg/mL) | 62.5 (≈ 40.2 µg/mL) | 
4 | NCCNC(=O)[C@H](Cc1c[nH]c2ccccc12)NC(=O)c1cc(-c2ccc(C(F)(F)F)cc2)ccc1N [Compound 16d, (S)-4-amino-N-(1-((2-aminoethyl)amino)-3-(1H-indol-3-yl)-1-oxopropan-2-yl)-4′-(trifluoromethyl)-[1,1′-biphenyl]-3-carboxamide] |  | 15.6 (≈ 7.95 µg/mL) | > 125 | 
5 | NCCNC(=O)[C@H](Cc1c[nH]c2ccccc12)NC(=O)c1cc(Br)ccc1NC(=O)c1ccc(-c2ccccc2)cc1 [Compound 12k, (S)-N-(2-((1-((2-aminoethyl)amino)-3-(1H-indol-3-yl)-1-oxopropan-2-yl)carbamoyl)-4-bromophenyl)-[1,1′-biphenyl]-4-carboxamide] | 12.7 | 7.8 (≈ 4.87 µg/mL) | > 125 | MIC (S. aureus; [3]): 7.8 µM (≈ 4.87 µg/mL); MIC (E. coli; [4]): > 125 µM
6 | NCCNC(=O)[C@H](Cc1c[nH]c2ccccc12)NC(=O)c1cc(Br)ccc1NC(=O)c1ccsc1 [Compound 12h, (S)-N-(2-((1-((2-aminoethyl)amino)-3-(1H-indol-3-yl)-1-oxopropan-2-yl)carbamoyl)-4-bromophenyl)thiophene-3-carboxamide] |  | 125 (≈ 69.3 µg/mL) | > 125 | 
7 | NCCNC(=O)[C@H](Cc1c[nH]c2ccccc12)NC(=O)c1cc(Br)ccc1NC(=O)c1cc2ccccc2[nH]1 [Compound 12f, (S)-N-(2-((1-((2-aminoethyl)amino)-3-(1H-indol-3-yl)-1-oxopropan-2-yl)carbamoyl)-4-bromophenyl)-1H-indole-2-carboxamide] |  | 125 (≈ 73.4 µg/mL) | > 125 | 
8 | NCCNC(=O)[C@H](Cc1c[nH]c2ccccc12)NC(=O)c1cc(Br)ccc1NC(=O)c1ccc2ccccc2n1 [Compound 12e, (S)-N-(2-((1-((2-aminoethyl)amino)-3-(1H-indol-3-yl)-1-oxopropan-2-yl)carbamoyl)-4-bromophenyl)quinoline-2-carboxamide] |  | 15.6 (≈ 9.35 µg/mL) | > 125 | 
9 | NCCNC(=O)[C@H](Cc1c[nH]c2ccccc12)NC(=O)c1cc(Br)ccc1N [Compound 17, (S)-2-amino-N-(1-((2-aminoethyl)amino)-3-(1H-indol-3-yl)-1-oxopropan-2-yl)-5-bromobenzamide] |  | > 125 | > 125 | 
10 | COc1cc2ccccc2cc1C(=O)Nc1ccc(Br)cc1C(=O)N[C@@H](Cc1c[nH]c2ccccc12)C(=O)NCCN [Compound 12d, (S)-N-(2-((1-((2-aminoethyl)amino)-3-(1H-indol-3-yl)-1-oxopropan-2-yl)carbamoyl)-4-bromophenyl)-3-methoxy-2-naphthamide] | 18.7 | 7.8 (≈ 4.9 µg/mL) | > 125 | 
11 | NCCNC(=O)[C@H](Cc1c[nH]c2ccccc12)NC(=O)c1cc(Br)ccc1NC(=O)c1ccccc1-c1ccccc1 [Compound 12i, (S)-N-(2-((1-((2-aminoethyl)amino)-3-(1H-indol-3-yl)-1-oxopropan-2-yl)carbamoyl)-4-bromophenyl)-[1,1′-biphenyl]-2-carboxamide] | 22.9 | 15.6 (≈ 9.74 µg/mL) | > 125 | 
12 | Colistin [reference compound] |  |  |  | MIC90 (S. aureus; [5]): 125 µM; MIC90 (E. coli; [5]): 1 µM
13 | NCCNC(=O)[C@H](Cc1c[nH]c2ccccc12)NC(=O)c1cc(Br)ccc1NC(=O)c1cccs1 [Compound 12g, (S)-N-(2-((1-((2-aminoethyl)amino)-3-(1H-indol-3-yl)-1-oxopropan-2-yl)carbamoyl)-4-bromophenyl)thiophene-2-carboxamide] |  | 125 (≈ 69.3 µg/mL) | > 125 | 
14 | NCCCNC(=O)[C@H](Cc1c[nH]c2ccccc12)NC(=O)c1cc(Br)ccc1NC(=O)c1ccc2ccccc2c1 [Compound 13a, (S)-N-(2-((1-((3-aminopropyl)amino)-3-(1H-indol-3-yl)-1-oxopropan-2-yl)carbamoyl)-4-bromophenyl)-2-naphthamide] |  | 15.6 (≈ 9.56 µg/mL) | > 125 | 
15 | NCCCC[C@H](N)C(=O)NCCNC(=O)[C@H](Cc1c[nH]c2ccccc12)NC(=O)c1cc(Br)ccc1NC(=O)c1ccc(-c2ccccc2)cc1 [Compound 19c, N-(4-bromo-2-(((S)-1-((2-((S)-2,6-diaminohexanamido)ethyl)amino)-3-(1H-indol-3-yl)-1-oxopropan-2-yl)carbamoyl)phenyl)-[1,1′-biphenyl]-4-carboxamide] | 150 | 15.6 (≈ 11.7 µg/mL) | 62.5 (≈ 47 µg/mL) | toxicity to mammalian cells (in words) (MRC-5 human fibroblasts; at 31.2 µM): non-toxic; MIC (S. aureus; [3]): 15.6 µM (≈ 11.7 µg/mL); MIC (E. coli; [4]): 62.5 µM (≈ 47 µg/mL); MIC (E. coli; Escherichia coli, broth microdilution in MHB, 18–24 h, read-out: MIC90 E. coli): 15.6 µM (≈ 11.7 µg/mL); improvement in antibacterial activity against E. coli compared to the parent compound (E. coli; versus parent 12a, 12j): > 16 fold
16 | CC(C)(C)c1ccc(-c2ccc(N)c(C(=O)N[C@@H](Cc3c[nH]c4ccccc34)C(=O)NCCN)c2)cc1 [Compound 16a, (S)-4-amino-N-(1-((2-aminoethyl)amino)-3-(1H-indol-3-yl)-1-oxopropan-2-yl)-4′-(tert-butyl)-[1,1′-biphenyl]-3-carboxamide] | 34.1 | 7.8 (≈ 3.88 µg/mL) | > 125 | 
17 | NCCCNC(=O)[C@H](Cc1c[nH]c2ccccc12)NC(=O)c1cc(Br)ccc1NC(=O)c1ccc2ccccc2n1 [Compound 13e, (S)-N-(2-((1-((3-aminopropyl)amino)-3-(1H-indol-3-yl)-1-oxopropan-2-yl)carbamoyl)-4-bromophenyl)quinoline-2-carboxamide] |  | > 125 | > 125 | 
18 | COc1ccc2ccccc2c1C(=O)Nc1ccc(Br)cc1C(=O)N[C@@H](Cc1c[nH]c2ccccc12)C(=O)NCCN [Compound 12c, (S)-N-(2-((1-((2-aminoethyl)amino)-3-(1H-indol-3-yl)-1-oxopropan-2-yl)carbamoyl)-4-bromophenyl)-2-methoxy-1-naphthamide] |  | 15.6 (≈ 9.81 µg/mL) | > 125 | 
19 | NCCNC(=O)[C@H](Cc1c[nH]c2ccccc12)NC(=O)c1cc(Br)ccc1NC(=O)Cc1cccc2ccccc12 [Compound 12b, (S)-N-(1-((2-aminoethyl)amino)-3-(1H-indol-3-yl)-1-oxopropan-2-yl)-5-bromo-2-(2-(naphthalen-1-yl)acetamido)benzamide] |  | 62.5 (≈ 38.3 µg/mL) | > 125 | MIC (S. aureus; Staphylococcus aureus, broth microdilution in MHB, 18–24 h, read-out: MIC90 S. aureus): 15.6 µM (≈ 9.56 µg/mL)
20 | NCCNC(=O)[C@H](Cc1c[nH]c2ccccc12)NC(=O)c1cc(Br)ccc1NC(=O)c1cccc(-c2ccccc2)c1 [Compound 12j, (S)-N-(2-((1-((2-aminoethyl)amino)-3-(1H-indol-3-yl)-1-oxopropan-2-yl)carbamoyl)-4-bromophenyl)-[1,1′-biphenyl]-3-carboxamide] | 13.5 | 3.9 (≈ 2.44 µg/mL) | > 125 | MIC (S. aureus; [3]): 3.9 µM (≈ 2.44 µg/mL); MIC (E. coli; [4]): > 125 µM; MIC90 (E. coli; [5]): >125 µM
